How the values were obtained:
[1] = test system: HIVIIIB; assay: Antiviral activity (anti-HIV activity) in MT4 cells, MTT readout; type: cell-based; settings: Human immunodeficiency virus 1, MT4, 120 h, read-out: IC50 (µM, 0% plasma)
Text: (§1) The anti-HIV activity of the compound of the invention can be determined in MT4 cells according to the following procedure. MT4 cells were infected with cell-free supernatant of HIVIIIB (previously frozen with known 50% tissue culture infectious dose (TCID50) at 0.003 multiplicity of infection (MOI) for one hour. After one hour infection, cells were washed twice to remove residual viruses, resuspended in culture media and seeded into 96-well tissue culture plates at 1x10^4 cells per well with various half-log dilutions of compounds. Uninfected cells are included as toxicity and cell controls. RPMI 1640 media (Gibco ) with 10% fetal bovine serum were used as culture media. Various concentrations of human serum (Sigma) 50%, 25% and 12.5% were added to culture media resulting in final concentration of 60%, 35% and 22.5% total serum. All assay plates were incubated in 37 deg. cent. incubator for 5 days. MTT (sigma, 5 mg/ml stock in PBS) was added to all wells at 25 ul per well, incubate for 4 hours. 20%SDS with 0.02 N HCl in water was added at 50 ul per well to lyse cellls. Plates incubated overnight for complete lyses were read on a microtitre plate reader at 570/650 nm wavelengths to determine cell optical density (O.D.). Raw data were analysed for percent inhibition by the following formula: (O.D. test well - O.D. virus control)/(O.D. cell control -O.D. virus control)x100 [formula] The 50% effective concentration (EC50) was calculated by the median effect equation (Chou, 1975,Proc. Int. Cong. Pharmacol. 6th p. 619) to determine the efficacy of compound. The 50% lethal concentration (LC50) was calculated using uninfected MT4 cells.
(§2) Under these conditions, the following data were obtained (n = 4 duplicate determinations: Table 2

[2] = 50% lethal concentration in uninfected MT4 cells (MTT); type: cell-based; settings: human, read-out: LC50
Text: as §1, §2

[3] = biological target: T1, HIV protease (Human immunodeficiency virus type 1 group M subtype B, UniProt P04585); assay: Fluorogenic Assay for Screening Inhibitors of HIV Protease; type: biochemical; settings: Inhibitor Concentration 0.5 nanomolar; read-out: Percent Inhibition
T1 construct: HIV protease consists of two identical subunits, each of which has 99 amino acid residues
Protocol: The inhibitory potency of the compound of the invention can be determined by the following method.
The compound of the invention is dissolved in DMSO and a small aliquot further diluted with DMSO to 100 times the final concentration desired for testing. The reaction is carried out in a 6 X 50 mm tube in a total volume of 300 microliters. The final concentrations of the components in the reaction buffer are: 125 mM sodium acetate, 1 M sodium chloride, 5 mM dithiothreitol, 0.5 mg/ml bovine serum albumin, 1.3 µM fluorogenic substrate, 2% (v/v) dimethylsulfoxide, pH 4.5. After addition of inhibitor, the reaction mixture is placed in the fluorometer cell holder and incubated at 30°C for several minutes. The reaction is initiated by the addition of a small aliquot of cold HIV protease. The fluorescence intensity (excitation 340 nm, emmision 490 nM) is recorded as a function of time. The reaction rate is determined for the first six to eight minutes. The observed rate is directly proportional to the moles of substrate cleaved per unit time. The percent inhibition is 100 X (1 - (rate in presence of inhibitor)/(rate in absence of inhibitor)).
Fluorogenic substrate: Dabcyl-Gaba-Ser-Gln-Asn-Tyr-Pro-lle-Val-Gln-EDANS wherein DABCYL = 4-(4-dimethylamino-phenyl)azobenzoic acid, Gaba = γ-aminobutyric acid, and EDANS = 5-((2-aminoethyl)amino)-naphthalene-1-sulfonic acid.

[4] = test system: HIV Selected In Vitro by the Compound of Example 2B; assay: microbe, parasite or virus in culture; type: cell-based
[5] = Human immunodeficiency virus 1, NL43, Virus NL4-3
[6] = Human immunodeficiency virus 1, Virus P7
[7] = Human immunodeficiency virus 1, Virus P11
[8] = Human immunodeficiency virus 1, Virus P14
[9] = Human immunodeficiency virus 1, Virus P17

Cc1cccc(C)c1OCC(=O)N[C@@H](Cc1ccccc1)[C@@H](O)C[C@H](Cc1ccccc1)NC(=O)[C@H](C(C)C)N1C(=O)CCC1=O [Example 18C, (2S,3S,5S)-2-(2,6-Dimethylphenoxyacetyl) amino-3-hydroxy-5-(2S-(1-pyrrolidin-2,5-dionyl)-3-methyl-butanoyl) amino-1,6-diphenylhexane]
IC50 [1]: 0.329 µM | CC50 at 120 h [2]: 19.1 µM | inhibition at 0.0005 µM [3]: 57.8%

Cc1cccc(C)c1/C=C/C(=O)N[C@@H](Cc1ccccc1)[C@@H](O)C[C@H](Cc1ccccc1)NC(=O)[C@H](C(C)C)N1CCCNC1=O [Example 19E]
IC50 [1]: 0.395 µM | CC50 at 120 h [2]: 17.9 µM | inhibition at 0.0005 µM [3]: 68.5%

Cc1cccc(C)c1OCC(=O)N[C@@H](Cc1ccccc1)[C@@H](O)C[C@H](Cc1ccccc1)NC(=O)[C@H](C(C)C)N1CCC(=O)NC1=O [Example 25E, (2S,3S,5S)-2-(2,6-Dimethylphenoxyacetyl) amino-3-hydroxy-5-[2S-(1-tetrahydro-pyrimid-2,4-dionyl)-3-methylbutanoyl]amino-1,6-diphenylhexane]
IC50 [1]: 0.012 µM | CC50 at 120 h [2]: 22.9 µM | inhibition at 0.0005 µM [3]: 100%

Cc1cccc(C)c1OCC(=O)N[C@@H](Cc1ccccc1)[C@@H](O)C[C@H](Cc1ccccc1)NC(=O)[C@H](C(C)C)N1CCNNC1=O [Example 26H, (2S,3S,5S)-2-(2,6-Dimethylphenoxyacetyl) amino-3-hydroxy-5[2S-(4-aza-1-tetrahydro-pyrimid-2-onyl)-3-methyl-butanoyl]amino-1,6-diphenylhexane]
IC50 [1]: 0.015 µM | CC50 at 120 h [2]: 33 µM | inhibition at 0.0005 µM [3]: 94.6%

Cc1cccc(C)c1OCC(=O)N[C@@H](Cc1ccccc1)[C@@H](O)C[C@H](NC(=O)[C@H](C(C)C)N1CCCNC1=O)C(C)C [Example 27D, (2S,3S,5S)-2-(2,6-Dimethylphenoxyacetyl) amino-3-hydroxy-5-[2S-(1-tetrahydro-pyrimid-2-onyl)-3-methylbutanoyl]amino-1-phenyl-6-methylheptane]
IC50 [1]: 0.03 µM | CC50 at 120 h [2]: 56.2 µM | inhibition at 0.0005 µM [3]: 92.9%

Cc1cccc(C)c1OCC(=O)N[C@@H](Cc1ccccc1)[C@@H](O)C[C@H](NC(=O)[C@H](C(C)C)N1CCC(=O)NC1=O)C(C)C [Example 28, (2S,3S,5S)-2-(2,6-Dimethylphenoxyacetyl) amino-3-hydroxy-5-[2S-(1-tetrahydro-pyrimid-2,4-dionyl)-3-methylbutanoyl]amino-1-phenyl-6-methylheptane]
IC50 [1]: 0.011 µM | CC50 at 120 h [2]: 72.2 µM | inhibition at 0.0005 µM [3]: 86.6%

Cc1cccc(C)c1OCC(=O)N[C@@H](Cc1ccccc1)[C@@H](O)C[C@H](Cc1ccccc1)NC(=O)[C@H](C(C)C)N1CCNC(=O)C1=O [Example 29C, (2S,3S,5S)-2-(2,6-Dimethylphenoxyacetyl)amino-3-hydroxy-5-[2S-(1-piperazin-2,3-dionyl)-3-methylbutanoyl]amino-1,6-diphenylhexane]
IC50 [1]: 0.427 µM | CC50 at 120 h [2]: 56 µM | inhibition at 0.0005 µM [3]: 72.6%

Cc1cccc(C)c1OCC(=O)N[C@@H](Cc1ccccc1)[C@@H](O)C[C@H](Cc1ccccc1)NC(=O)[C@H](C(C)C)N1CC=NNC1=O [Example 30B, (2S,3S,5S)-2-(2,6-Dimethylphenoxyacetyl) amino-3-hydroxy-5[2S-(4-aza-4,5-dehydro-1-pyrimid-2-onyl)-3-methyl-butanoyl]amino-1,6-diphenylhexane]
IC50 [1]: 0.003 µM | CC50 at 120 h [2]: 18 µM | inhibition at 0.0005 µM [3]: 91%

CC(C)(C)NC(=O)[C@@H]1CN(Cc2cccnc2)CCN1C[C@@H](O)C[C@@H](Cc1ccccc1)C(=O)N[C@H]1c2ccccc2C[C@H]1O [Indinavir, N-(2(R)-hydroxy-1 (S)-indanyl)-2(R)-phenylmethyl-4(S)-hydroxy-5-(1-(4-(3-pyridylmethyl)-2(S)-N'-(t-butylcarboxamido)-piperazinyl))-pentaneamide]
EC50 [4, 5]: 0.067 µM | EC50 [4, 6]: 0.113 µM | EC50 [4, 7]: 0.153 µM | EC50 [4, 8]: 0.425 µM | EC50 [4, 9]: 1.36 µM | resistance (fold) ([4]; P17 virus): 20 fold

CC(C)(C)NC(=O)[C@@H]1C[C@@H]2CCCC[C@@H]2CN1C[C@@H](O)[C@H](Cc1ccccc1)NC(=O)[C@H](CC(N)=O)NC(=O)c1ccc2ccccc2n1 [Saquinavir, N-tert-butyl-decahydro-2-[2(R)-hydroxy-4-phenyl-3(S)-[[N-(2-quinolylcarbonyl)-L-asparaginyl]amino]butyl]-(4aS,8aS)-isoquinoline-3(S)-carboxamide]
EC50 [4, 5]: 0.02 µM | EC50 [4, 6]: 0.033 µM | EC50 [4, 7]: 0.058 µM | EC50 [4, 8]: 0.048 µM | EC50 [4, 9]: 0.082 µM | fold change in EC50 ([4]; all of the passaged virus (P7, P11, P14, P17)): ≤ 4 fold
